Measurements reported in patent EP4692073A1, “CYCLIC AMINE DERIVATIVE, AND COMPOSITION AND USE THEREOF” (Shanghai Jingxin Biomedical Co., Ltd., priority 2023, dated 2024).

Tests used:
TA1535 = experiment: Salmonella typhimurium reverse mutation test, TA1535; type: cell-based; set-up: key: + indicates a positive mutagenic result; - indicates a negative mutagenic result
Experimental: (§1) The revived strains or a single colony from the master plate were inoculated into the broth, and cultured in a thermostat gas bath vibrator at 100 to 120 rpm and 37±1°C for 10 to 16 hours, marked and stored for later use. The bottom agar medium (containing an appropriate amount of agar, Vogel-Bonner buffer, 20% glucose solution and 20% magnesium sulfate solution) was poured into a six-well plate, approximately 20mL-25mL into each well, and allowed to cool and solidify naturally, marked each well and stored for later use.
(§2) Three wells were set up in each group for parallel experiments. The top agar medium was sterilized under high pressure and kept warm at about […]. In each test tube, 0.1mL of negative control (DMSO) or positive control or test sample, 0.1mL of bacterial solution suspension, 0.5mL of phosphate buffer (0.2M PBS) (-S9) or 0.5mL of S9 mixed solution (+S9) and 2.5mL top culture medium were added, after vortex mixing, and then quickly and evenly spread on the culture dish which was already spreaded with the bottom agar medium. After natural cooling and solidification, the culture dish was inverted and placed in a 37°C incubator for 48 to 72 hours. After culturing for 48 to 72 hours, the culture dish was taked out, and the number of revertant colonies in each well was counted, the growth background was observed under a microscope to determine whether there was antibacterial or bactericidal activity, and the experimental results were recorded.

TA98 = experiment: Salmonella typhimurium reverse mutation test, TA98; type: cell-based; set-up: key: + indicates a positive mutagenic result; - indicates a negative mutagenic result
Experimental: as §1, §2

Lp(a) = experiment: In vivo Lp(a) inhibition in cynomolgus monkeys; settings: 3 mg/kg oral gavage once daily for 5 days, serum Lp(a) 8 hours after administration on Day 5
Experimental: • 1. Experimental purpose: The purpose of this test is to test the inhibitory effect of the compounds of the present invention on Lp(a) in cynomolgus monkeys • 2. Experimental instruments and reagents: Fully automatic biochemical analyzer (Hitachi 7600 model), • 3. Experimental methods: The cynomolgus monkeys were housed with a standard light cycle (12 hours light/12 hours dark), at a room temperature of 18-26°C and a relative humidity of 40-70%, with drinking water provided continuously for 24 hours, and feed was provided to the animals twice daily, in the morning (about 10:30) and in the afternoon (about 15:00). Five days prior to the study, the cynomolgus monkeys were randomly assigned to groups (n=3/group) based on their body weight and baseline serum Lp(a) concentration for the study. The administration volume was calculated according to the body weight of the animals on the first day of administration, and the administration volume was 5 mL/kg, administered once daily by oral gavage for 5 consecutive days, and the dosage was 3 mg/kg, and the solvent was 1% HEC and 0.25% Tween 80.
The adaptation period (after fasting overnight), before administration on Day 1, and 8 hours after administration on Day 5. […] The serum Lp(a) level was detected using a fully automatic biochemical analyzer. […]

TA1537 = experiment: Salmonella typhimurium reverse mutation test, TA1537; type: cell-based; set-up: key: + indicates a positive mutagenic result; - indicates a negative mutagenic result
Experimental: as §1, §2

TA102 = experiment: Salmonella typhimurium reverse mutation test, TA102; type: cell-based; set-up: key: + indicates a positive mutagenic result; - indicates a negative mutagenic result
Experimental: as §1, §2

TA100 = experiment: Salmonella typhimurium reverse mutation test, TA100; type: cell-based; set-up: key: + indicates a positive mutagenic result; - indicates a negative mutagenic result
Experimental: as §1, §2

[1] = TA1535, no S9 mixture, 62µg/ dish
[2] = TA1535, no S9 mixture, 185µg/ dish
[3] = TA1535, no S9 mixture, 556µg/ dish
[4] = TA1535, no S9 mixture, 1667µg/ dish
[5] = TA1535, no S9 mixture, 5000µg/ dish
[6] = TA1535, with S9 mixture, 62µg/ dish
[7] = TA1535, with S9 mixture, 185µg/ dish
[8] = TA1535, with S9 mixture, 556µg/ dish
[9] = TA1535, with S9 mixture, 1667µg/ dish
[10] = TA1535, with S9 mixture, 5000µg/ dish
[11] = TA98, no S9 mixture, 62µg/ dish
[12] = TA98, no S9 mixture, 185µg/ dish
[13] = TA98, no S9 mixture, 556µg/ dish
[14] = TA98, no S9 mixture, 1667µg/ dish
[15] = TA98, no S9 mixture, 5000µg/ dish
[16] = TA98, with S9 mixture, 62µg/ dish
[17] = TA98, with S9 mixture, 185µg/ dish
[18] = TA98, with S9 mixture, 556µg/ dish
[19] = TA98, with S9 mixture, 1667µg/ dish
[20] = TA98, with S9 mixture, 5000µg/ dish
[21] = TA1537, no S9 mixture, 62µg/ dish
[22] = TA1537, no S9 mixture, 185µg/ dish
[23] = TA1537, no S9 mixture, 556µg/ dish
[24] = TA1537, no S9 mixture, 1667µg/ dish
[25] = TA1537, no S9 mixture, 5000µg/ dish
[26] = TA1537, with S9 mixture, 62µg/ dish
[27] = TA1537, with S9 mixture, 185µg/ dish
[28] = TA1537, with S9 mixture, 556µg/ dish
[29] = TA1537, with S9 mixture, 1667µg/ dish
[30] = TA1537, with S9 mixture, 5000µg/ dish
[31] = TA102, no S9 mixture, 62µg/ dish
[32] = TA102, no S9 mixture, 185µg/ dish
[33] = TA102, no S9 mixture, 556µg/ dish
[34] = TA102, no S9 mixture, 1667µg/ dish
[35] = TA102, no S9 mixture, 5000µg/ dish
[36] = TA102, with S9 mixture, 62µg/ dish
[37] = TA102, with S9 mixture, 185µg/ dish
[38] = TA102, with S9 mixture, 556µg/ dish
[39] = TA102, with S9 mixture, 1667µg/ dish
[40] = TA102, with S9 mixture, 5000µg/ dish
[41] = TA100, no S9 mixture, 62µg/ dish
[42] = TA100, no S9 mixture, 185µg/ dish
[43] = TA100, no S9 mixture, 556µg/ dish
[44] = TA100, no S9 mixture, 1667µg/ dish
[45] = TA100, no S9 mixture, 5000µg/ dish
[46] = TA100, with S9 mixture, 62µg/ dish
[47] = TA100, with S9 mixture, 185µg/ dish
[48] = TA100, with S9 mixture, 556µg/ dish
[49] = TA100, with S9 mixture, 1667µg/ dish
[50] = TA100, with S9 mixture, 5000µg/ dish

**Q.** Which results are given for `O=C(O)[C@@H](Cc1cccc(CN(Cc2cccc(C[C@H](C(=O)O)[C@H]3CCNC3)c2)C(=O)c2cccc(C[C@H](C(=O)O)[C@H]3CCNC3)c2)c1)[C@H]1CCNC1` [Example 5]?
**A.** mutagenicity (TA1535; [1]): -; mutagenicity (TA1535; [2]): -; mutagenicity (TA1535; [3]): -; mutagenicity (TA1535; [4]): -; mutagenicity (TA1535; [5]): -; mutagenicity (TA1535; [6]): -; mutagenicity (TA1535; [7]): -; mutagenicity (TA1535; [8]): -; mutagenicity (TA1535; [9]): -; mutagenicity (TA1535; [10]): -; mutagenicity (TA98; [11]): -; mutagenicity (TA98; [12]): -; mutagenicity (TA98; [13]): -; mutagenicity (TA98; [14]): -; mutagenicity (TA98; [15]): -; mutagenicity (TA98; [16]): -; mutagenicity (TA98; [17]): -; mutagenicity (TA98; [18]): -; mutagenicity (TA98; [19]): -; mutagenicity (TA98; [20]): -; Lp(a) inhibition rate (Lp(a)): 50.23±20.41%; mutagenicity (TA1537; [21]): -; mutagenicity (TA1537; [22]): -; mutagenicity (TA1537; [23]): -; mutagenicity (TA1537; [24]): -; mutagenicity (TA1537; [25]): -; mutagenicity (TA1537; [26]): -; mutagenicity (TA1537; [27]): -; mutagenicity (TA1537; [28]): -; mutagenicity (TA1537; [29]): -; mutagenicity (TA1537; [30]): -; mutagenicity (TA102; [31]): -; mutagenicity (TA102; [32]): -; mutagenicity (TA102; [33]): -; mutagenicity (TA102; [34]): -; mutagenicity (TA102; [35]): -; mutagenicity (TA102; [36]): -; mutagenicity (TA102; [37]): -; mutagenicity (TA102; [38]): -; mutagenicity (TA102; [39]): -; mutagenicity (TA102; [40]): -; mutagenicity (TA100; [41]): -; mutagenicity (TA100; [42]): -; mutagenicity (TA100; [43]): -; mutagenicity (TA100; [44]): -; mutagenicity (TA100; [45]): -; mutagenicity (TA100; [46]): -; mutagenicity (TA100; [47]): -; mutagenicity (TA100; [48]): -; mutagenicity (TA100; [49]): -; mutagenicity (TA100; [50]): -

**Q.** `O=C(O)[C@@H](Cc1cccc(CN(Cc2cccc(C[C@H](C(=O)O)[C@H]3CCNC3)c2)Cc2cccc(C[C@H](C(=O)O)[C@H]3CCNC3)c2)c1)[C@H]1CCNC1` [Comparative Example 1] was tested. Which mutagenicity (TA1535; [1]) did it give?
**A.** -

**Q.** What about the mutagenicity (TA1535; [2]) of the same compound?
**A.** -

**Q.** What about the mutagenicity (TA1535; [3]) of the same compound?
**A.** -

**Q.** And the mutagenicity (TA1535; [4])?
**A.** -

**Q.** And the mutagenicity (TA1535; [5])?
**A.** -

**Q.** And the mutagenicity (TA1535; [6])?
**A.** -

**Q.** What about the mutagenicity (TA1535; [7]) of the same compound?
**A.** -

**Q.** And the mutagenicity (TA1535; [8])?
**A.** -

**Q.** What about the mutagenicity (TA1535; [9]) of the same compound?
**A.** -

**Q.** What about the mutagenicity (TA1535; [10]) of the same compound?
**A.** -

**Q.** What about the mutagenicity (TA98; [11]) of the same compound?
**A.** -

**Q.** And the mutagenicity (TA98; [12])?
**A.** +

**Q.** And the mutagenicity (TA98; [13])?
**A.** +

**Q.** And the mutagenicity (TA98; [14])?
**A.** +

**Q.** And the mutagenicity (TA98; [15])?
**A.** +

**Q.** And the mutagenicity (TA98; [16])?
**A.** -

**Q.** What about the mutagenicity (TA98; [17]) of the same compound?
**A.** -

**Q.** And the mutagenicity (TA98; [18])?
**A.** +

**Q.** What about the mutagenicity (TA98; [19]) of the same compound?
**A.** +

**Q.** What about the mutagenicity (TA98; [20]) of the same compound?
**A.** +

**Q.** And the “Lp(a) inhibition rate” value (Lp(a))?
**A.** 32.87±17.30%

**Q.** What about the mutagenicity (TA1537; [21]) of the same compound?
**A.** -

**Q.** What about the mutagenicity (TA1537; [22]) of the same compound?
**A.** -

**Q.** And the mutagenicity (TA1537; [23])?
**A.** -

**Q.** What about the mutagenicity (TA1537; [24]) of the same compound?
**A.** -

**Q.** What about the mutagenicity (TA1537; [25]) of the same compound?
**A.** -

**Q.** And the mutagenicity (TA1537; [26])?
**A.** -

**Q.** What about the mutagenicity (TA1537; [27]) of the same compound?
**A.** -

**Q.** What about the mutagenicity (TA1537; [28]) of the same compound?
**A.** -

**Q.** What about the mutagenicity (TA1537; [29]) of the same compound?
**A.** -

**Q.** And the mutagenicity (TA1537; [30])?
**A.** -

**Q.** What about the mutagenicity (TA102; [31]) of the same compound?
**A.** -

**Q.** And the mutagenicity (TA102; [32])?
**A.** -

**Q.** And the mutagenicity (TA102; [33])?
**A.** -

**Q.** And the mutagenicity (TA102; [34])?
**A.** -

**Q.** What about the mutagenicity (TA102; [35]) of the same compound?
**A.** -

**Q.** What about the mutagenicity (TA102; [36]) of the same compound?
**A.** -

**Q.** What about the mutagenicity (TA102; [37]) of the same compound?
**A.** -

**Q.** And the mutagenicity (TA102; [38])?
**A.** -

**Q.** And the mutagenicity (TA102; [39])?
**A.** -

**Q.** What about the mutagenicity (TA102; [40]) of the same compound?
**A.** -

**Q.** What about the mutagenicity (TA100; [41]) of the same compound?
**A.** -

**Q.** And the mutagenicity (TA100; [42])?
**A.** -

**Q.** And the mutagenicity (TA100; [43])?
**A.** -

**Q.** And the mutagenicity (TA100; [44])?
**A.** -

**Q.** And the mutagenicity (TA100; [45])?
**A.** -

**Q.** And the mutagenicity (TA100; [46])?
**A.** -

**Q.** And the mutagenicity (TA100; [47])?
**A.** -

**Q.** And the mutagenicity (TA100; [48])?
**A.** -

**Q.** What about the mutagenicity (TA100; [49]) of the same compound?
**A.** -

**Q.** What about the mutagenicity (TA100; [50]) of the same compound?
**A.** -
